The text below walks through data of PubChem BioAssay (NCI).

SMILES strings stand for the structures.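 Compound exposure: 48 hours, 5 concentrations, 96-well plates. GI50: concentration for 50% inhibition of growth. TGI marks complete inhibition of growth.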

Some test systems named below: MDA-N; SF-295 CNS; HCC-2998 colon; HS 578T breast; NCI-H226 lung; UACC-62 melanoma; NCI-H460 lung; M14 melanoma; U251 CNS; EKVX NSCLC; ACHN renal; HOP-92 NSCLC; BT-549 breast; PC-3 prostate; DLD-1 colon; M19-MEL melanoma.
Holding throughout (test): NCI anticancer screen, dose series, 48 h

With `FC(F)(F)c1nc2ccc(SSc3ccc4nc(C(F)(F)F)[nH]c4c3)cc2[nH]1`, the TGI with MDA-N, with SF-295 CNS, in the test with HCC-2998 colon, with HS 578T breast, with NCI-H226 lung and with UACC-62 melanoma was greater than 100 µM in each case. In addition, the TGI was 75.1 µM in the test on NCI-H460 lung; greater than 100 µM with M14 melanoma; greater than 100 µM in the test on U251 CNS; greater than 100 µM in the test with EKVX NSCLC; greater than 100 µM in the test with ACHN renal; greater than 100 µM with HOP-92 NSCLC. In addition, the TGI with BT-549 breast and in the test with PC-3 prostate was greater than 100 µM throughout. Besides, the GI50 in the test with HS 578T breast, in the test with NCI-H226 lung, in the test on EKVX NSCLC and with HOP-92 NSCLC was greater than 100 µM each time.
As for `C=CCN1C(=O)CC1N(CC=C)S(=O)(=O)c1ccc(C)cc1` (centres undefined), the TGI in the test with MDA-N, in the test with SF-295 CNS, in the test with HCC-2998 colon, in the test with HS 578T breast, in the test on NCI-H226 lung and with UACC-62 melanoma was greater than 100 µM each time. The TGI in the test with NCI-H460 lung, with M14 melanoma, with U251 CNS, in the test with EKVX NSCLC, with ACHN renal and in the test with HOP-92 NSCLC was greater than 100 µM in each case. Further, the TGI in the test on BT-549 breast and in the test on PC-3 prostate was greater than 100 µM throughout.
Take `CCC(C)C(C(=O)N/N=C1/SCC(=O)N1C)C(=O)N/N=C1/SCC(=O)N1C` (centres undefined): the TGI in the test with MDA-N, with SF-295 CNS, with HCC-2998 colon, with HS 578T breast, in the test with NCI-H226 lung and with UACC-62 melanoma was greater than 100 µM throughout. Further, the TGI with NCI-H460 lung, with M14 melanoma, in the test on U251 CNS, in the test on EKVX NSCLC, with ACHN renal and with HOP-92 NSCLC was greater than 100 µM in each case. Also, the TGI in the test with BT-549 breast and in the test with PC-3 prostate was greater than 100 µM in each case.
Turning to `C#CCSc1nc(N)c2ncn(C3OC(CO)C(O)C3O)c2n1` (centres undefined), the TGI in the test on SF-295 CNS, in the test with HCC-2998 colon, in the test on NCI-H460 lung, in the test with DLD-1 colon, in the test on U251 CNS and in the test on EKVX NSCLC was greater than 100 µM in each case. Also, the TGI with ACHN renal and in the test with M19-MEL melanoma was greater than 100 µM throughout.
Consider `C[n+]1noc(/N=N\[O-])c1-c1cc(-c2c(/N=N\[O-])on[n+]2C)cc(-c2c(/N=N/[O-])on[n+]2C)c1`, for which the TGI in the test with MDA-N, in the test with SF-295 CNS, in the test on HCC-2998 colon, with HS 578T breast, in the test with NCI-H226 lung and in the test with UACC-62 melanoma was greater than 100 µM throughout. The TGI with NCI-H460 lung, in the test on M14 melanoma, in the test with U251 CNS, with EKVX NSCLC, in the test on ACHN renal and in the test on HOP-92 NSCLC was greater than 100 µM each time. For the same compound, the TGI in the test with BT-549 breast and with PC-3 prostate was greater than 100 µM each time.
In the case of `Nc1ccc(-c2ncc3cc(-c4cccc(-c5cc6cnc(-c7ccc(N)cc7)nc6c6ccccc56)c4)c4ccccc4c3n2)cc1`, the TGI with MDA-N, in the test on SF-295 CNS, with HCC-2998 colon, with HS 578T breast, with NCI-H226 lung and in the test with UACC-62 melanoma was greater than 100 µM throughout. The TGI in the test on NCI-H460 lung, with M14 melanoma, in the test with U251 CNS, in the test with EKVX NSCLC, in the test with ACHN renal and with HOP-92 NSCLC was greater than 100 µM each time. For the same compound, the TGI in the test on BT-549 breast and with PC-3 prostate was greater than 100 µM throughout.
`OC(CC(CC(O)(C(F)(F)Cl)C(F)(F)Cl)=NNc1ccccc1)(C(F)(F)Cl)C(F)(F)Cl`: the TGI in the test with MDA-N is 7.81 µM; in the test with SF-295 CNS, 7.09 µM; in the test with HCC-2998 colon, greater than 10 µM; with HS 578T breast it was 5.93 µM; in the test on NCI-H226 lung it was 7.89 µM; in the test with UACC-62 melanoma it was 4.95 µM. The TGI in the test with NCI-H460 lung is 7.85 µM; with M14 melanoma it was greater than 10 µM; in the test on U251 CNS, greater than 10 µM; with EKVX NSCLC, 7.35 µM; in the test with ACHN renal, 9.12 µM; with HOP-92 NSCLC it was 5.19 µM. Moreover, the figures for the TGI in the test with BT-549 breast and with PC-3 prostate were 5.69 µM and 4.7 µM, respectively.
In the case of `C=C[C@@]1(C)CCC2(O)C(CCC3C2(C)CCC[C@@]3(C)COC(=O)CC(=O)OC)C1` (some centres undefined), the TGI was greater than 100 µM with HCC-2998 colon; 55.9 µM in the test on NCI-H226 lung; 32.3 µM in the test with UACC-62 melanoma; greater than 100 µM with NCI-H460 lung; 32.7 µM with M14 melanoma; 32.1 µM in the test with DLD-1 colon. The TGI was 32.2 µM in the test with U251 CNS and greater than 100 µM in the test on ACHN renal.
Take `CC1(c2cccc3c2C2(O)C=CC4(CCC32)OCCO4)OCCO1` (centres undefined): the TGI with SF-295 CNS, in the test on HCC-2998 colon, in the test with NCI-H226 lung, in the test with UACC-62 melanoma, with NCI-H460 lung and in the test with M14 melanoma was greater than 100 µM throughout. Also, the TGI in the test with DLD-1 colon, in the test with U251 CNS, in the test with EKVX NSCLC, in the test on ACHN renal and with M19-MEL melanoma was greater than 100 µM throughout.
Take `C=C1CC(Cn2ccc(=O)[nH]c2=O)(c2ccc(-c3ccccc3)cc2)OC1=O` (centres undefined): the TGI was found to be 3.5 µM with MDA-N; 25.3 µM with SF-295 CNS; 4.12 µM in the test with HCC-2998 colon; 22.9 µM in the test on HS 578T breast; 13.6 µM with NCI-H226 lung; 1.88 µM with UACC-62 melanoma. Further, the TGI in the test on NCI-H460 lung is 28.4 µM; in the test on M14 melanoma, 3.58 µM; with U251 CNS, 25 µM; in the test on EKVX NSCLC it was 29.9 µM; with ACHN renal, 3.25 µM; in the test with HOP-92 NSCLC, 2.62 µM. The values for the TGI in the test with BT-549 breast and in the test with PC-3 prostate were 3.73 µM and 7.52 µM, respectively.
